Some results are limits rather than exact numbers.

One assay deals with human plasma kallikrein (Homo sapiens (Human), UniProt P03952). Put plainly: In vitro enzyme inhibition of human plasma kallikrein (PFR-AMC cleavage). The assay is classed as biochemical. Conditions: Pro-Phe-Arg-AMC substrate, 37° C., read-out: hPK IC50. An outline of the steps: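 Human plasma kallikrein and compound, diluted in 50 mM Tris-HCl pH 7.5, 150 mM NaCl, 0.01% Triton X-100, preincubated 5 min at 37 °C before PFR-AMC was added.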

Assay [1] deals with cellular kallikrein activity (Homo sapiens (Human), UniProt P03952). Put plainly: In vitro cellular assay (contact assay): kallikrein activity in ellagic acid-activated human plasma, Z-FR-2-AMC substrate. The following applies: human plasma activated with ellagic acid, 37° C. The assay is classed as biochemical.
Sequence of cellular kallikrein activity (P03952 391-638): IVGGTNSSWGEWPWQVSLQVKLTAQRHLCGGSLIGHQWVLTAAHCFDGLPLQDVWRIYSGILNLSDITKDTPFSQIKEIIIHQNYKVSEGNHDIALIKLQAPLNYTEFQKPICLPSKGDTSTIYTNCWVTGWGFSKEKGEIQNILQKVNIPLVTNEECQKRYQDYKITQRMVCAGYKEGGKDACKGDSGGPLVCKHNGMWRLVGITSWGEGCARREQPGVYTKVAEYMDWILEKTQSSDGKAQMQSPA
Sequence of cellular kallikrein activity (P03952 20-390 partner): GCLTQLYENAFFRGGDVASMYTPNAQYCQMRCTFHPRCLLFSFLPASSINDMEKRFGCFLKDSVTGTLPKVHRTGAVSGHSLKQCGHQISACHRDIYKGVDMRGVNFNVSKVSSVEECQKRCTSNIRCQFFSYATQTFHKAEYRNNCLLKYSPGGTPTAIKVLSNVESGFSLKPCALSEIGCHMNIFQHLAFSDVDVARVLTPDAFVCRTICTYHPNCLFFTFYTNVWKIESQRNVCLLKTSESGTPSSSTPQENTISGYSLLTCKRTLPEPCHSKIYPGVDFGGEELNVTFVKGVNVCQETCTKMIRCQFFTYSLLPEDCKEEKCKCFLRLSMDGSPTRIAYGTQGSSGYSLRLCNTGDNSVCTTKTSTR

Sequence of human plasma kallikrein (P03952 391-638): as the sequence (P03952 391-638) above
Sequence of human plasma kallikrein (P03952 20-390 partner): as the sequence (P03952 20-390 partner) above

Take `Cc1nc(N)ccc1CNC(=O)c1ccnc(Cc2ccc3ncc(CC(F)F)cc3c2)c1` [Example 279, N-((6-amino-2-methylpyridin-3-yl)methyl)-2-((3-(2,2-difluoroethyl)quinolin-6-yl)methyl)isonicotinamide]: at human plasma kallikrein, the IC50 was < 0.1 µM. The EC50 in assay [1] was in the range of 0.1 to 1 µM.
As to `CCc1cnc2ccc(Cc3cc(C(=O)NCc4ccc5c(N)nccc5c4)ccn3)cc2c1` [Example 283, N-((1-aminoisoquinolin-6-yl)methyl)-2-((3-ethylquinolin-6-yl)methyl)isonicotinamide], the IC50 at human plasma kallikrein is < 0.1 µM. For the same compound, the concentration for a half-maximal effect (EC50) in assay [1] is < 0.1 µM.
For the compound `CCc1cnc2ccc(Cc3cc(C(=O)NCc4c(C)cc(N)nc4C)ccn3)cc2c1` [Example 286, N-((6-amino-2,4-dimethylpyridin-3-yl)methyl)-2-((3-ethylquinolin-6-yl)methyl)isonicotinamide], the IC50 at human plasma kallikrein is < 0.1 µM. In addition, in assay [1], the EC50 was < 0.1 µM.
For `Cc1cnc2c(S(N)(=O)=O)cc(Cc3cc(C(=O)NCc4cc5c(Cl)c[nH]c5cc4F)ccn3)cc2c1` [Example 287, N-((3-chloro-6-fluoro-1H-indol-5-yl)methyl)-2-((3-methyl-8-sulfamoylquinolin-6-yl)methyl)isonicotinamide], the half-inhibitory concentration (IC50) on human plasma kallikrein is < 0.1 µM. Moreover, the EC50 in assay [1] is < 0.1 µM.
On to `Cc1cnc2c(S(N)(=O)=O)cc(Cc3cc(C(=O)NCc4n[nH]c5ccc(Cl)cc45)ccn3)cc2c1` [Example 288, N-((5-chloro-1H-indazol-3-yl)methyl)-2-((3-methyl-8-sulfamoylquinolin-6-yl)methyl)isonicotinamide], for which the concentration for half-maximal inhibition (IC50) on human plasma kallikrein was < 0.1 µM. Moreover, the concentration for a half-maximal effect (EC50) in assay [1] was 0.1 to 1 µM.
Consider `Cc1cnc2c(S(N)(=O)=O)cc(Cc3cc(C(=O)NCc4ccc5c(N)nccc5c4)ccn3)cc2c1` [Example 289, N-((1-aminoisoquinolin-6-yl)methyl)-2-((3-methyl-8-sulfamoylquinolin-6-yl)methyl)isonicotinamide], for which the IC50 on human plasma kallikrein is < 0.1 µM. Further, the EC50 in assay [1] was < 0.1 µM.
In the case of `Cc1cnc2c(S(N)(=O)=O)cc(Cc3cc(C(=O)NCc4ccc5[nH]cc(Cl)c5c4F)ccn3)cc2c1` [Example 290, N-((3-chloro-4-fluoro-1H-indol-5-yl)methyl)-2-((3-methyl-8-sulfamoylquinolin-6-yl)methyl)isonicotinamide], the IC50 at human plasma kallikrein was < 0.1 µM. The compound further displayed an EC50 in assay [1] of 0.1 to 1 µM.
As for `Cc1cnc2c(S(N)(=O)=O)cc(Cc3cc(C(=O)NCc4cnc5[nH]cc(Cl)c5c4)ccn3)cc2c1` [Example 291, N-((3-chloro-1H-pyrrolo[2,3-b]pyridin-5-yl)methyl)-2-((3-methyl-8-sulfamoylquinolin-6-yl)methyl)isonicotinamide], the IC50 on human plasma kallikrein is < 0.1 µM. Moreover, the EC50 in assay [1] was < 0.1 µM.

These data come from US10023557B2 (LifeSci Pharmaceuticals, Inc., priority 2015, dated 2018).
